One compound from patent publication US11465989B2, “Guanidine compounds and use thereof” (IMMUNOMET THERAPEUTICS INC., priority 2014, dated 2022) can be followed below.

Counter-ions that a name gives are not always drawn.

The test system of this experiment is A549 cells. The experiment in a line: Inhibition of OCR (XF Analyzer). The format is cell-based. The conditions noted are these: Homo sapiens, A549, 24 h. The essentials: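 A549 cells pretreated with compound in serum-free RPMI for 23 h, then switched to pH 7.4 XF medium with 15 mM glucose, 15 mM pyruvate, 4 mM glutamine plus compound. Oxygen consumption measured by Seahorse XF after 1 h equilibration; IC50 from OCR inhibition curves, checked against CyQuant cytotoxicity.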

In general, IC50 refers to the concentration at which inhibition is half-maximal. `N=C(N)NC(=N)NCCc1ccc(Cl)c(Cl)c1` [Example 1, N-1-(3,4-dichloro)phenethylbiguanide hydrochloride] had an IC50 above 5 µM.
